Assay results reported in article PMC11298430, “Synthesis and In vitro evaluation of bichalcones as novel anti-toxoplasma agents” (Frontiers in Chemistry, 2024).
Read-outs that look alike come from different tables or passages of the source.

Legend:
MTT cytotoxicity assay = assay type: cell-based; details: human
Experimental: (§1) The MTT [3-(4, 5-dimethylthiazole-2-yl)-2, 5-diphenyltetrazolium bromide] reduction assay ([Mosmann, 1983]) was used to quantify the cytotoxic effects of the examined chalcones and bichalcones on the host cells. To avoid edge effects, only the inner 60 wells of each plate were used. Briefly, 5 × 10^4 Hs27 cells per well were cultured in 96-well microtiter plates in Iscove’s modified Dulbecco’s medium (IMDM, Gibco–Thermo Fisher Scientific, Braunschweig, Germany, #12440053) with a volume of 100 µL per well and incubated overnight at 37°C until confluence. Different concentrations of the compounds (ranging from 200 μM to 0.09 µM) were then added to the Hs27 cells. Controls included untreated Hs27 cells treated with DMSO, and cells treated with staurosporine (0.031, 0.062, 0.125, 0.25, 0.5, 1 µM) (Merck, Darmstadt, Germany, #S4400), a natural product known for its potent activity as apoptosis inducer ([Belmokhtar et al., 2001]). After 24 h of incubation, the culture media were replaced with 100 µL of Dulbecco’s Modified Eagle Medium (DMEM) medium without red phenol (Gibco-Thermo Fisher Scientific, Braunschweig, Germany, #21041025) plus 10% heat-inactivated fetal bovine serum (FBS Standard, South America origin, fetal bovine serum, […] sterile filtered, PAN-Biotech, Aidenbach, Germany, #P30-3,306), and […] 2-mercaptoethanol (Gibco-Thermo Fisher Scientific, Braunschweig, Germany, #21985023). The experiment was performed following the manufacturer’s instructions (CyQuant MTT Cell Viability Assay Kit, Thermo Fisher Scientific, Braunschweig, Germany, #V-13154). Optical density (O.D.) was measured at 570 nm using a microplate reader (TECAN Sunrise, Männedorf, Switzerland). The half-maximal cytotoxic concentration (CC50) values of each compound against Hs27 cells relative to DMSO-treated samples were determined using GraphPad PRISM™ statistical software (version 9.5.1; San Diego, CA). In addition, the selectivity index (SI) of each compound was calculated from the ratio of CC50/IC50.

[1] = test system: Toxoplasma gondii ME49 tachyzoites; assay: Toxoplasma gondii in vitro inhibition assay (3H-uracil incorporation); assay type: cell-based
[2] = Stability experiments (reverse phase HPLC purity); assay type: physicochemical
Experimental: Table S3: Purity results of the stability experiments over a varying time span at different
Entry Variations Time Purity [%]
Table S4: Reverse Phase HPLC chromatogram of bichalcone 2ab (rac) in DMSO stock solution […]
Table S5: Reverse Phase HPLC chromatogram of bichalcone 2ab (rac) in DMSO stock solution
Table S6: Reverse Phase HPLC chromatogram of bichalcone 2ab (rac) in DMSO at -78 °C for […]

Toxoplasma gondii = test system: Toxoplasma gondii; parameters: method as in Touquet et al., 2018; details: literature value ref Touquet et al., 2018; cited from earlier work
human fibroblasts Hs27 = assay: MTT cytotoxicity assay; assay type: cell-based; details: 24 h
Experimental: as §1

[3] = Toxoplasma gondii, HS27, T. gondii ME49 tachyzoites in Hs27 host cells, 3H-uracil incorporation, n = 6, read-out: IC50 ± S.D.
[4] = Hs27 cells, MTT, 24 h, n = 6, read-out: CC50
[5] = Toxoplasma gondii, HS27, read-out: IC50 ± S.D.
[6] = T. gondii ME49 tachyzoites in Hs27 host cells, 3H-uracil incorporation, n = 6, read-out: IC50 ± S.D.

SMILES | CC50 at 24 h (MTT cytotoxicity assay) [µM] | IC50 [1, 3] [µM] | also measured
COc1cc(O)c(C(=O)/C=C/c2cccc(Br)c2)c(OC)c1 [1bf] | > 200 | 11.3 ± 0.61 | –
COc1cc(C)c(-c2c(C)cc(OC)c(C(=O)/C=C/c3ccccc3)c2O)c(O)c1C(=O)/C=C/c1ccccc1 (racemic) [2ab] | > 200 | 0.11 ± 0.02 | Purity ([2]; 22 °C, DMSO, 24 h): 75.9%; Purity ([2]; 40 °C, DMSO, 24 h): 76.6%; Purity ([2]; 40 °C, MeOH, 24 h): 89.7%; Purity ([2]; 40 °C, MeOH, KOH, 24 h): 35.6%; Purity ([2]; -20 °C, DMSO, 6 months): 96.2%
COc1cc(C)c(-c2c(C)cc(OC)c(C(=O)/C=C/c3ccc(C(F)(F)F)cc3)c2O)c(O)c1C(=O)/C=C/c1ccc(C(F)(F)F)cc1 [2ad] | > 200 | 24.7 ± 3.52 | –
COc1cc(C)cc(O)c1C(=O)/C=C/c1ccc(Br)cc1 [1ae] | 190 ± 99 | 10.6 ± 1.05 | –
COc1cc(C)c(-c2c(C)cc(OC)c(C(=O)/C=C/c3ccc(N(C)C)cc3)c2O)c(O)c1C(=O)/C=C/c1ccc(N(C)C)cc1 [2ac] | > 200 | > 50 | –
COc1cc(C)c(-c2c(C)cc(OC)c(C(=O)/C=C/c3ccccc3Br)c2O)c(O)c1C(=O)/C=C/c1ccccc1Br [2ag] | > 200 | 18.44 ± 0.1 | –
COc1ccc(/C=C/C(=O)c2c(O)cc(OC)cc2OC)cc1 [1ba] | > 200 | 8.08 ± 2.06 | –
COc1cc(OC)c(-c2c(OC)cc(OC)c(C(=O)/C=C/c3ccc(N(C)C)cc3)c2O)c(O)c1C(=O)/C=C/c1ccc(N(C)C)cc1 [2bc] | > 200 | > 50 | –
COc1cc(O)c(C(=O)/C=C/c2ccccc2)c(OC)c1 [1bb] | 87.8 ± 16 | 6.01 ± 2.54 | –
CCc1nc(N)nc(N)c1-c1ccc(Cl)cc1 [PYR, pyrimethamine, reference compound] | > 100 | 0.22 ± 0.05 | IC50 (Toxoplasma gondii): 0.4 µM
COc1cc(O)c(C(=O)/C=C/c2ccc(C(F)(F)F)cc2)c(OC)c1 [1bd] | > 200 | > 50 | –
COc1cc(OC)c(-c2c(OC)cc(OC)c(C(=O)/C=C/c3ccccc3Br)c2O)c(O)c1C(=O)/C=C/c1ccccc1Br [2bg] | > 200 | > 50 | –
COc1cc(OC)c(-c2c(OC)cc(OC)c(C(=O)/C=C/c3ccc(Br)cc3)c2O)c(O)c1C(=O)/C=C/c1ccc(Br)cc1 [2be] | > 200 | 8.55 ± 1.28 | –
COc1ccc(/C=C/C(=O)c2c(OC)cc(OC)c(-c3c(OC)cc(OC)c(C(=O)/C=C/c4ccc(OC)cc4)c3O)c2O)cc1 [2ba] | > 200 | > 50 | –
COc1cc(O)c(C(=O)/C=C/c2ccccc2Br)c(OC)c1 [1bg] | – | – | CC50 at 24 h (MTT cytotoxicity assay; [4]): 86.5 ± 72 µM; IC50 [1, 5]: 4.46 ± 0.46 µM
COc1cc(C)cc(O)c1C(=O)/C=C/c1cccc(Br)c1 [1af] | 134 ± 78 | 6.18 ± 0.55 | –

SMILES | CC50 at 24 h (MTT cytotoxicity assay) [µM] | IC50 [1, 3] [µM] | also measured
COc1cc(C)cc(O)c1C(=O)/C=C/c1ccc(C(F)(F)F)cc1 [1ad] | > 200 | > 50 | –
COc1cc(OC)c(-c2c(OC)cc(OC)c(C(=O)/C=C/c3cccc(Br)c3)c2O)c(O)c1C(=O)/C=C/c1cccc(Br)c1 [2bf] | > 200 | 12.4 ± 2.09 | –
COc1ccc(/C=C/C(=O)c2c(O)cc(C)cc2OC)cc1 [1aa] | 180 ± 32 | 21.8 ± 3.07 | –
COc1cc(C)c(-c2c(C)cc(OC)c(C(=O)/C=C/c3cccc(Br)c3)c2O)c(O)c1C(=O)/C=C/c1cccc(Br)c1 [2af] | > 200 | 30.5 ± 7.21 | –
COc1cc(C)c(-c2c(C)cc(OC)c(C(=O)/C=C/c3ccc(Br)cc3)c2O)c(O)c1C(=O)/C=C/c1ccc(Br)cc1 [2ae] | > 200 | 7.91 ± 1.14 | –
COc1cc(O)c(C(=O)/C=C/c2ccc(Br)cc2)c(OC)c1 [1be] | – | – | CC50 at 24 h (MTT cytotoxicity assay; [4]): > 200 µM; IC50 [1, 5]: > 50 µM
COc1cc(C)cc(O)c1C(=O)/C=C/c1ccccc1Br [1ag] | > 200 | > 50 | –
COc1cc(OC)c(-c2c(OC)cc(OC)c(C(=O)/C=C/c3ccc(C(F)(F)F)cc3)c2O)c(O)c1C(=O)/C=C/c1ccc(C(F)(F)F)cc1 [2bd] | > 200 | 3.09 ± 0.15 | –
COc1cc(C)cc(O)c1C(=O)/C=C/c1ccccc1 [1ab] | 133 ± 28 | 14.1 ± 2.62 | –
COc1cc(C)c(-c2c(C)cc(OC)c(C(=O)/C=C/c3ccccc3)c2O)c(O)c1C(=O)/C=C/c1ccccc1 (single isomer, unassigned) [(S a)-2ab] | > 200 | – | IC50 [1, 6]: 0.31 ± 0.03 µM
COc1cc(C)c(-c2c(C)cc(OC)c(C(=O)/C=C/c3ccccc3)c2O)c(O)c1C(=O)/C=C/c1ccccc1 (single isomer, unassigned) [(R a)-2ab] | – | – | CC50 (human fibroblasts Hs27): > 200 µM; IC50 [1, 6]: 0.1 ± 0.01 µM
COc1ccc(/C=C/C(=O)c2c(OC)cc(C)c(-c3c(C)cc(OC)c(C(=O)/C=C/c4ccc(OC)cc4)c3O)c2O)cc1 [2aa] | > 200 | 6.63 ± 0.77 | –
COc1cc(O)c(C(=O)/C=C/c2ccc(N(C)C)cc2)c(OC)c1 [1bc] | – | – | CC50 at 24 h (MTT cytotoxicity assay; [4]): > 200 µM; IC50 [1, 5]: > 50 µM
COc1cc(C)cc(O)c1C(=O)/C=C/c1ccc(N(C)C)cc1 [1ac] | > 200 | > 50 | –
COc1cc(OC)c(-c2c(OC)cc(OC)c(C(=O)/C=C/c3ccccc3)c2O)c(O)c1C(=O)/C=C/c1ccccc1 [2bb] | > 200 | 9.75 ± 1.95 | –
